# Laboratory results from BindingDB's records for doi:10.1039/c9md00489k (University of Porto, 2020).
# *1 amine or outer side, *2 acyl side, *3 side chain or, on linkers, in order; H or OH if unused. Where a SMILES comes first, the peptide text is derived from it. The star is where a group is joined. X1 = O=c1nc(N*)ccn1[C@@H]1O[C@H](CO)[C@@H](O)C1(F)F; Suc = O=C(CCC(=O)[*:2])[*:1]
# Assay: Substrate activity at ENT1 in human BXPC-3 cells assessed as inhibition of cell growth pretreated with ENT1 inhibitor nitrobenzylthioinosine for 5 mins measured after 72 hrs by SRB assay
row,Molecule,IC50 [nM]
1,CSCC[C@H](NC(=O)[C@@H](NC(=O)[C@@H]1CCCN1C(=O)[C@H](CC(C)C)NC(=O)[C@H](CCCCN)NC(=O)CCC(=O)Nc1ccn([C@@H]2O[C@H](CO)[C@@H](O)C2(F)F)c(=O)n1)C(C)C)C(=O)N[C@@H](Cc1c[nH]c2ccccc12)C(N)=O ({X1-Suc}-KLPVMW-NH2),384
2,CSCC[C@H](NC(=O)[C@@H](NC(=O)[C@@H]1CCCN1C(=O)[C@H](CC(C)C)NC(=O)[C@H](CCCCN)NC(=O)[C@H](Cc1c[nH]c2ccccc12)NC(=O)CCC(=O)Nc1ccn([C@@H]2O[C@H](CO)[C@@H](O)C2(F)F)c(=O)n1)C(C)C)C(N)=O ({X1-Suc}-WKLPVM-NH2),380
3,CC(C)C[C@H](NC(=O)[C@@H](NC(=O)[C@@H]1CCCN1C(=O)[C@@H](NC(=O)[C@H](Cc1c[nH]c2ccccc12)NC(=O)CCC(=O)Nc1ccn([C@@H]2O[C@H](CO)[C@@H](O)C2(F)F)c(=O)n1)C(C)C)[C@@H](C)O)C(=O)N[C@@H](CCCCN)C(N)=O ({X1-Suc}-WVPTLK-NH2),381

# Next, values leading:
row,IC50 [nM],Molecule
1,> 1000,CSCC[C@H](NC(=O)[C@H](NC(=O)[C@@H]1CCCN1C(=O)[C@H](CC(C)C)NC(=O)[C@H](CCCCN)NC(=O)[C@@H](N)Cc1c[nH]c2ccccc12)C(C)C)C(N)=O
2,> 1000,H-KLPVMW-NH2
3,> 1000,H-WVPTLK-NH2
